Active and inactive are the calls of the source.
Columns and labels:
[1] = Trypanosoma cruzi growth suppression in host cells – NIH3T3 host cells, beta-gal luminescence, confirmation (AID 2044); format: functional, cell-based;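 further: intracellular parasites grown in NIH/3T3 mouse fibroblasts as host cells; luminescent beta-galactosidase reporter signal from transgenic T. cruzi replicating inside host cells; inhibitors lower the luminescence signal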
[2] = NIH3T3 cell viability loss – ATP luminescence, mouse fibroblasts, counter-screen, dose response (AID 2010); format: functional, cell-based;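 further: cells exposed to compound for about 90 hours before reading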
[3] = viability inhibitors of stage V gametocytes – luminescence, dose response (AID 1117278); format: functional, cell-based;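 further: gametocytes exposed to compound for 24 hours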
[4] = viability loss in human Jurkat cells – cell-based, luminescence, cytotoxicity control for P. falciparum gametocyte viability project, dose response (AID 1117277); format: functional;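 further: potency reflects loss of cellular ATP meaning fewer viable cells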
Ephrin type-A receptor 4 = Ephrin type-A receptor 4 (Mus musculus, UniProt Q03137); assay: EphA4 ligand-binding antagonists – biochemical, colorimetric, mouse EphA4, primary screen (AID 689); format: functional
Sequence of Ephrin type-A receptor 4 (Q03137 whole entry, the tested form may be a part): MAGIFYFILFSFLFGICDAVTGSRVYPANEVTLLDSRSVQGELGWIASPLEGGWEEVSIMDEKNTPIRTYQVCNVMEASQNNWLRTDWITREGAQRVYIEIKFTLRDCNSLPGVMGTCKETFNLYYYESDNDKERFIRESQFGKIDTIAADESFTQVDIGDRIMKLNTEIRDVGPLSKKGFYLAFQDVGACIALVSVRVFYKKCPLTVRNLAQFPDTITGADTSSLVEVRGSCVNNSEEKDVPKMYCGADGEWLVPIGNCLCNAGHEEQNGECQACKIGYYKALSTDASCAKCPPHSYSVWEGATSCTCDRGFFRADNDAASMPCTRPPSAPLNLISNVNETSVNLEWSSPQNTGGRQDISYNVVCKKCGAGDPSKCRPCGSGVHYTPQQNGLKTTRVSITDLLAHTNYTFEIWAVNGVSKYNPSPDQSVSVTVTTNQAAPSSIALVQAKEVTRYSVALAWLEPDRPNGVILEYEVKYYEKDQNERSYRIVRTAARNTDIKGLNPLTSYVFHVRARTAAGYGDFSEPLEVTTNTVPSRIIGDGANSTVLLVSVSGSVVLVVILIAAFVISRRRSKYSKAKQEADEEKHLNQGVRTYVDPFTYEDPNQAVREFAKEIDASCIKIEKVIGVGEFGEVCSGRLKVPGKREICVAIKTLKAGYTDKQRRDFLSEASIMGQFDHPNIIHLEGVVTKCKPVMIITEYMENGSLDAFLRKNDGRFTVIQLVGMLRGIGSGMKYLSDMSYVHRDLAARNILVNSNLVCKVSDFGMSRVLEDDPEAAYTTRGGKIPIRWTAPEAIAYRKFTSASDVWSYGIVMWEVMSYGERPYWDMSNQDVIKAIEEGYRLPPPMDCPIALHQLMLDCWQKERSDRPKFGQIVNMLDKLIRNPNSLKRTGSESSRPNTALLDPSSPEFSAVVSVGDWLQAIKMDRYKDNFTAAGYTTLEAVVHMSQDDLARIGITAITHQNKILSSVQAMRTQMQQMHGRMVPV

CHO = CHO cell viability loss, potency – luminescence, cytotoxicity control for TLR9-MyD88 binding inhibitor project, dose response (AID 588339); format: functional, cell-based, hamster; details: Cricetulus griseus;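 further: CHO cells stably coexpressing TLR9 and MyD88 fusions from primary screen; compound exposure lasted 48 hours before viability readout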
[5] = molecular target: T1, Corticotropin-releasing factor receptor 2/Corticotropin-releasing factor-binding protein (Homo sapiens, UniProt P24387+Q13324); assay: activators of CRF receptor 2 with binding protein – uHTS hits, confirmation (AID 602473); format: functional; details: read-out: EC50_Mean
T1 sequence (Q13324 whole entry): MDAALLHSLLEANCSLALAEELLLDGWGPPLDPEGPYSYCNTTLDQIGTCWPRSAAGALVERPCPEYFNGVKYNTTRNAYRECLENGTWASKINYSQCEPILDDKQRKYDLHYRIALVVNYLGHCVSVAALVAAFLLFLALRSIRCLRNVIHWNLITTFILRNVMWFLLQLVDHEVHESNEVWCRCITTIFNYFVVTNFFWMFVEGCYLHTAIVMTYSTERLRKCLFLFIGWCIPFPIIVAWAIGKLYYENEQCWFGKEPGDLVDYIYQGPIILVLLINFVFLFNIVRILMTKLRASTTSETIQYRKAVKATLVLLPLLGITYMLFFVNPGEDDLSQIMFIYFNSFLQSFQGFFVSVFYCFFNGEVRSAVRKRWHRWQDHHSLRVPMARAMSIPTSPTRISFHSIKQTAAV
T1 sequence (P24387 whole entry): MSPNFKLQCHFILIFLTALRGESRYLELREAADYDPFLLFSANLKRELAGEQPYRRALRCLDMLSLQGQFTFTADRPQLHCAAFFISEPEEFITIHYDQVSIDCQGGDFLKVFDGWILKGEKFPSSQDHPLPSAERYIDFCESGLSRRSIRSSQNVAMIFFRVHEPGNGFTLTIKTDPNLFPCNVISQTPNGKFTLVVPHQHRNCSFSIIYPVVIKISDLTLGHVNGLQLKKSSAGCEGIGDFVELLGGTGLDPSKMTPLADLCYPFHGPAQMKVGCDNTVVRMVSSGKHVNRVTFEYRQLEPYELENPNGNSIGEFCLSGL

[6] = A cytotoxicity screen of small molecule inhibitors of the PhoP region in Salmonella typhi identified in the primary screen. [Related pubchem assays: 1850, 1864, 1985 ]; format: functional
[7] = molecular target: Disintegrin and metalloproteinase domain-containing protein 17 (Homo sapiens, UniProt P78536); assay: exosite inhibitors of ADAM17, dose response, biochemical (AID 743260)
Sequence of Disintegrin and metalloproteinase domain-containing protein 17 (P78536 whole entry, the tested form may be a part): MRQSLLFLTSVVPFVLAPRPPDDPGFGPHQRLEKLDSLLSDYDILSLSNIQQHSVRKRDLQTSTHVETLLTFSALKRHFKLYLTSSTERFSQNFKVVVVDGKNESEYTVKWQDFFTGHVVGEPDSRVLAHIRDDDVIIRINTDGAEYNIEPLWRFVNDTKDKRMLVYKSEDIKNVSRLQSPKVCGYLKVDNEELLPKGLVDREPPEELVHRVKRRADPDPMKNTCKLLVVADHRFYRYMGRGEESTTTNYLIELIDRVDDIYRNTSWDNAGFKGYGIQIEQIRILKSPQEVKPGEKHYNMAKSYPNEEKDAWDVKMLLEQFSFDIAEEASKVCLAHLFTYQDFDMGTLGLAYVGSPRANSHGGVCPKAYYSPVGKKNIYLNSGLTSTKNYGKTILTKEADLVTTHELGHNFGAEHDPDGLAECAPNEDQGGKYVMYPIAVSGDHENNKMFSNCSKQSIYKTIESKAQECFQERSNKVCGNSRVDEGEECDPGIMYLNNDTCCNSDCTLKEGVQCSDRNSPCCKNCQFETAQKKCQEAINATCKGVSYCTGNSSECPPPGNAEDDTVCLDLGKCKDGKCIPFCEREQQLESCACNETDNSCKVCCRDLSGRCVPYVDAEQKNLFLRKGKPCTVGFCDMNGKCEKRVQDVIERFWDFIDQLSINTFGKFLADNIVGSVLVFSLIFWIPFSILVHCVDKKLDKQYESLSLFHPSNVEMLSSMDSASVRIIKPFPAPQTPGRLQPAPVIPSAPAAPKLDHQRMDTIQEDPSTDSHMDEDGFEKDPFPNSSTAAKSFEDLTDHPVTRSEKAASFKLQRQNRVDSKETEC

[8] = inhibition of ADAM10 peptide cleavage – biochemical, FRET peptide substrate, recombinant human ADAM10, selectivity assay for ADAM17 exosite inhibitor project, dose response (AID 743259);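 further: ADAM10 enzyme cleaving a FRET peptide substrate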
[9] = viability of uninfected HEp-2 cells – cell-based, HTS, cytotoxicity control for RSV inhibitor project, dose response (AID 2410); format: functional; details: human respiratory syncytial virus
[10] = microbe, parasite or virus in culture; format: functional; details: Mycobacterium tuberculosis
[11] = molecular target: T2, Heat shock factor protein 1 (Mus musculus, UniProt P38532); assay: decrease of HSF1-responsive luciferase luminescence – cell-based, NIH3T3, dose retest, confirmation (AID 2382); format: functional;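 further: NIH3T3 fibroblasts with HSF1-driven luciferase reporter stressed by proteasome inhibitor MG132; luminescence from HSF1-driven luciferase expression after 8 hours of MG132 stress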
T2 sequence (P38532 whole entry): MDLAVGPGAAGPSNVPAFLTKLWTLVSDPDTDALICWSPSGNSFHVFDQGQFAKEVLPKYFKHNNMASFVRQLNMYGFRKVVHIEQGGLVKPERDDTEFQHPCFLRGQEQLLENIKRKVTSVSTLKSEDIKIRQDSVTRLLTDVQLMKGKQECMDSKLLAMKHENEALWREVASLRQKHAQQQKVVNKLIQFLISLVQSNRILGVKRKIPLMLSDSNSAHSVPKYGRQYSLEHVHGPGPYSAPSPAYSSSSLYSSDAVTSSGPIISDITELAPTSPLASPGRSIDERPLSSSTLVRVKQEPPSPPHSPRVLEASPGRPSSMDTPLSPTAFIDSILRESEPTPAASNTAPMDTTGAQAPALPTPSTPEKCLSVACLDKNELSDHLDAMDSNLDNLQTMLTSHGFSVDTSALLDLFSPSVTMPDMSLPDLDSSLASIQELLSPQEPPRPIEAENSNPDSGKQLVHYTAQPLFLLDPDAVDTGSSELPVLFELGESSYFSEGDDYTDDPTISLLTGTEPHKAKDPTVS

[12] = THP-1 cell cytotoxicity, dose response, cytotoxicity control for non-replicating M. tuberculosis project (AID 489025); format: functional
cells = format: functional
[13] = molecular target: T3, Replicative DNA helicase DnaB (Mycobacterium tuberculosis, UniProt P9WMR3); assay: DnaB intein splicing inhibitors, dose response, biochemical, cell-free fluorescence (AID 449749); format: functional
T3 sequence (P9WMR3 whole entry): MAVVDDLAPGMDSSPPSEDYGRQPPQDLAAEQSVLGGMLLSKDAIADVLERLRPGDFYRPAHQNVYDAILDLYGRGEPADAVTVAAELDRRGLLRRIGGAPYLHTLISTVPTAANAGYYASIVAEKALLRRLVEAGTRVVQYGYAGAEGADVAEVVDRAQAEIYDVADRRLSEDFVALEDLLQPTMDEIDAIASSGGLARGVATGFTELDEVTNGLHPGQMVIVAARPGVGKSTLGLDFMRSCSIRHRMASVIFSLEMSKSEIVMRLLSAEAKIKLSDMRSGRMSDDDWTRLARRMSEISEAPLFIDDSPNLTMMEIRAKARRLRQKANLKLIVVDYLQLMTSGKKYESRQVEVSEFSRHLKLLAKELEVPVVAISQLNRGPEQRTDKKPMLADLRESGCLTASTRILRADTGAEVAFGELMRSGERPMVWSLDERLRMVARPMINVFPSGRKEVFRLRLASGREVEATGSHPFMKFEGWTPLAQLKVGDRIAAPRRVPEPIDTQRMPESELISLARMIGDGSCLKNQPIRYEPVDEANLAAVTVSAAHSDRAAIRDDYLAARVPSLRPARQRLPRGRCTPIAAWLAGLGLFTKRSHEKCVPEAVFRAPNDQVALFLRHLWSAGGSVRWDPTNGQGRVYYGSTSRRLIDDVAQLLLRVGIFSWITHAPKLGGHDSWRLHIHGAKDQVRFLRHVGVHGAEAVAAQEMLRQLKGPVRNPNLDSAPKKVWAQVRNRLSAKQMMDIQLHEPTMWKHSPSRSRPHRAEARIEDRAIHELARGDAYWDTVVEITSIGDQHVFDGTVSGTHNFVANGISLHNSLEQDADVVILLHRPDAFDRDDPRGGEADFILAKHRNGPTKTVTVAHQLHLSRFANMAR

Protein RecA = molecular target: T4, Protein RecA (Mycobacterium tuberculosis, UniProt P9WHJ3); assay: Fluorescence Cell-Free Homogeneous Dose Retest to Identify Inhibitors of RecA-Intein Splicing Activity. [Related pubchem assays (depositor defined):AID2097, AID2223, AID489010, AID492950]; format: functional
T4 sequence (P9WHJ3 whole entry): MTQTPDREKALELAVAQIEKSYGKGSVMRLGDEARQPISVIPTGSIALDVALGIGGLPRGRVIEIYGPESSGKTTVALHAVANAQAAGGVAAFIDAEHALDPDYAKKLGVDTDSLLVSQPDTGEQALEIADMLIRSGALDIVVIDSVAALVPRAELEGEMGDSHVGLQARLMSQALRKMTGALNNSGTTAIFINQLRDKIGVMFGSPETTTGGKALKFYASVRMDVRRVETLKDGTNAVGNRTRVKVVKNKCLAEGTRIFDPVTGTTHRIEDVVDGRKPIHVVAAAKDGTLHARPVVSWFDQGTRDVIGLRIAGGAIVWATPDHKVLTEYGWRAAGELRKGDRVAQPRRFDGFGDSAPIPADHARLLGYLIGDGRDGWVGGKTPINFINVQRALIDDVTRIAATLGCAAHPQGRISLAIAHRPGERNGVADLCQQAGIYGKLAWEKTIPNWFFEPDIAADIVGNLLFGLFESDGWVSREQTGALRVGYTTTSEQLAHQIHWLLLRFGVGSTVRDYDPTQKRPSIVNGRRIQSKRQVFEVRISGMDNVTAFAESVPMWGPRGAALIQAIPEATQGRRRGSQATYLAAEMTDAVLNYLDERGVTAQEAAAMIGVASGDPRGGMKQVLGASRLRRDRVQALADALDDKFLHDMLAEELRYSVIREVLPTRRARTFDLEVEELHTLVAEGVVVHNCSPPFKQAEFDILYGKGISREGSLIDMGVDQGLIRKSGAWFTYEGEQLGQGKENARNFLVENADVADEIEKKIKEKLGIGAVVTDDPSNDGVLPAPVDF

Beta Lactamase = Beta Lactamase (Pseudomonas aeruginosa, UniProt Q932Y6); assay: BLA reporter interference, concentration series – BLA reporter cells, FRET fluorescence, artefact control for TLR9-MyD88 binding inhibitor project, dose response (AID 588341); format: cell-based;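 further: cell based assay in CHO-K1 cells stably expressing beta-lactamase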
Sequence of Beta Lactamase (Q932Y6 whole entry): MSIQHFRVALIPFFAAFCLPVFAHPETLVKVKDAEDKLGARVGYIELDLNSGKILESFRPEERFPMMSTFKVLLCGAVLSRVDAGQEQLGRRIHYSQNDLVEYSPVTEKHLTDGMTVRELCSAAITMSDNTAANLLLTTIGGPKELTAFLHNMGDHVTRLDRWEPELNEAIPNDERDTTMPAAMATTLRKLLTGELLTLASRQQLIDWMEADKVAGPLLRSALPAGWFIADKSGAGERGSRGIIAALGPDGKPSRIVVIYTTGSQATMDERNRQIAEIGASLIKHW

Paired box protein Pax-8 = Paired box protein Pax-8 (Homo sapiens, UniProt Q06710); assay: PAX8 transcriptional activity inhibition in RMG-I – RMG-I cells, luciferase, cherry-pick, dose response (AID 687027); format: functional, cell-based;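 further: luciferase reporter driven by Pax8 target thyroperoxidase promoter measured by SteadyGlo luminescence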
Sequence of Paired box protein Pax-8 (Q06710 whole entry): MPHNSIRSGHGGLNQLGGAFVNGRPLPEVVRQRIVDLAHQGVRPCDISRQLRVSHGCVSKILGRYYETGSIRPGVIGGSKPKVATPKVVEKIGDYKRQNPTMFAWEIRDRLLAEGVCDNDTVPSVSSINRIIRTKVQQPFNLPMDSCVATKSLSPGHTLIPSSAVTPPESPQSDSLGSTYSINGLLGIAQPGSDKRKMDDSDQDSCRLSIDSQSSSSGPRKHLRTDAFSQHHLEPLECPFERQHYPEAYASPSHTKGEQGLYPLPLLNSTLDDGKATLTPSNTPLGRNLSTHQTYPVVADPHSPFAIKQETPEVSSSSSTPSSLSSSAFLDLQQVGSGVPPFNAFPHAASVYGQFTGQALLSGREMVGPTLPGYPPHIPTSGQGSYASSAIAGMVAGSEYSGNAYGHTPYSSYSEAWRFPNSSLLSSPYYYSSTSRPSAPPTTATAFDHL

[14] = general cell-killing toxicity readout – plate reader, dry powder samples, cytotoxicity control for PAX8 inhibitor project, dose response (AID 743021); format: functional, cell-based

COc1ccc(C(=O)C[n+]2cc(-c3ccc(OC)cc3)n3c2CCCC3)cc1
EC50 [1]: 0.243 µM (active) | EC50 [2]: > 60 µM (not active) | IC50 [3]: > 109 µM (inactive) | IC50 [4]: > 83.3 µM (inactive)

Cn1cc([N+](=O)[O-])c(C(=O)Nc2ccc3c(c2)OCCO3)n1
IC50 (Ephrin type-A receptor 4): > 100 µM (not active)

O=[N+]([O-])c1ccc(N(c2ccccc2)c2ccccc2)cc1
IC50 (Ephrin type-A receptor 4): 10.8 µM (active) | IC50 (CHO): > 49.7 µM (inactive) | EC50 [5]: 24.3 µM (active)

CCCOc1ccc(C2=CSC3=NCCN23)cc1Cl
EC50 [6]: > 50 µM (active)

Cc1noc(C)c1C(=O)OCC(=O)Nc1ccccc1Oc1ccccc1
IC50 [7]: > 69.5 µM (inactive) | IC50 [8]: > 69.5 µM (inactive)

CCOC(=O)c1sc(NC(=O)CN2C(=O)NC3(CC(C)CC(C)(C)C3)C2=O)cc1C (stereo unspecified)
CC50 [9]: 14.9 µM (active) | EC50 [1]: 2.17 µM (active) | CC50 [10]: 30.6 µM (active) | EC50 [2]: 9.25 µM (active) | IC50 [7]: > 69.5 µM (inactive) | IC50 [8]: 10.6 µM (inactive)

CCS(=O)(=O)c1ncc(Cl)c(C(=O)Nc2ccc(C)cc2)n1
EC50 [11]: 5.18 µM (inconclusive) | EC50 [1]: 2.31 µM (active) | EC50 [2]: 4.9 µM (active) | CC50 [12]: 21 µM (active) | IC50 (cells): 5.21 µM (active) | IC50 (CHO): 3.98 µM (active) | AC50 [13]: 5.56 µM (active) | EC50 (Protein RecA): 6.94 µM (active) | IC50 (Beta Lactamase): 7.65 µM (active) | AC50 (Paired box protein Pax-8): 17.2 µM (active) | AC50 [14]: 34.9 µM (active)

C=CCn1c(SCC(=O)Nc2ncc(Cc3cc(C(F)(F)F)ccc3Cl)s2)nnc1-c1ccncc1
IC50 (Ephrin type-A receptor 4): > 100 µM (not active)

CCOC(=O)c1ccc(NC(=O)CCOc2ccc(C)cc2)cc1
IC50 [3]: > 109 µM (inactive) | IC50 [4]: > 83.3 µM (inactive)

— ChEMBL document CHEMBL1201862, “PubChem BioAssay data set” (2004)
